Measured values reported in US4259345A, “2-(Imidazol-1-ylmethyl)pyrroles” (Pfizer Inc., priority 1979, dated 1981).

Experiments:
[1] = target: T1, Prostacyclin (PGI2) Synthetase (Sus scrofa, UniProt A0A5G2QT35); experiment: Prostacyclin (PGI2) synthetase inhibition in vitro (isometric tension of rabbit aorta strip); format: biochemical; conditions: pig aorta microsomes; PGH2 substrate, 30 sec, 22° C; 5 min pre-incubation; read-out: Molar concentration causing 50% inhibition of PGI2 Synthetase
T1 construct: Pig aorta microsomes; from tissue; host or cells: pig aorta (microsomes)
T1 sequence (A0A5G2QT35 1-497): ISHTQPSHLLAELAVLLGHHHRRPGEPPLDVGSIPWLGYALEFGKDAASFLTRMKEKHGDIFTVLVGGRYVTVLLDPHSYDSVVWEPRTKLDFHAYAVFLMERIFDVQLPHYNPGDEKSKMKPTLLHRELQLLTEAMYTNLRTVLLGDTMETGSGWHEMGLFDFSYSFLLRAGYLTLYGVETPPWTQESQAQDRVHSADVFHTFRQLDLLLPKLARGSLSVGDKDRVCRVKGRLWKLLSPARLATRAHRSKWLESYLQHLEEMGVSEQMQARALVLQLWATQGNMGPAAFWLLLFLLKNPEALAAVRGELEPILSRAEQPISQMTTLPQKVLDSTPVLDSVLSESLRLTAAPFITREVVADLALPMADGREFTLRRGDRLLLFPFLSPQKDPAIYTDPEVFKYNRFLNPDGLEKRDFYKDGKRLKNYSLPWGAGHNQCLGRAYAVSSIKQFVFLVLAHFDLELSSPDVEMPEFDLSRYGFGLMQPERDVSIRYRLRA
Protocol: (§1) The effect of the compounds of the formula (I) on the thromboxane synthetase enzyme, and the prostacyclin synthetase and cyclo-oxygenase enzyme has been measured by the following in vitro enzyme assays:
2. Prostacyclin (PGI2) Synthetase
Pig aorta microsomes (Nature, 1976, 263, 663) are incubated (30 sec.; 22° C.) with PGH2 produced as in 1) and aliquots bio-assayed as in 1. […] The test compound is then pre-incubated with the enzyme for 5 minutes, and its ability to prevent the decrease in tension is measured.
(§2) The results of these tests are shown in the following Table, which gives the molar concentration of each compound which caused a 50% change in the effect of the relevant enzyme on isometric tension, i.e. caused a 50% inhibition of the action of that enzyme.

[2] = target: T2, Thromboxane A2 (TxA2) Synthetase (Homo sapiens, UniProt P24557); experiment: Thromboxane A2 (TxA2) synthetase inhibition in vitro (isometric tension of rabbit aorta spirals); format: biochemical; conditions: Indomethacin pretreated human platelet microsomes; PGH2 substrate, 2 min, 0° C; 5 min pre-incubation; read-out: Molar concentration causing 50% inhibition of TxA2 Synthetase
T2 construct: Indomethacin pretreated human platelet microsomes; from tissue; host or cells: human platelets (microsomes)
T2 sequence (P24557 1-533): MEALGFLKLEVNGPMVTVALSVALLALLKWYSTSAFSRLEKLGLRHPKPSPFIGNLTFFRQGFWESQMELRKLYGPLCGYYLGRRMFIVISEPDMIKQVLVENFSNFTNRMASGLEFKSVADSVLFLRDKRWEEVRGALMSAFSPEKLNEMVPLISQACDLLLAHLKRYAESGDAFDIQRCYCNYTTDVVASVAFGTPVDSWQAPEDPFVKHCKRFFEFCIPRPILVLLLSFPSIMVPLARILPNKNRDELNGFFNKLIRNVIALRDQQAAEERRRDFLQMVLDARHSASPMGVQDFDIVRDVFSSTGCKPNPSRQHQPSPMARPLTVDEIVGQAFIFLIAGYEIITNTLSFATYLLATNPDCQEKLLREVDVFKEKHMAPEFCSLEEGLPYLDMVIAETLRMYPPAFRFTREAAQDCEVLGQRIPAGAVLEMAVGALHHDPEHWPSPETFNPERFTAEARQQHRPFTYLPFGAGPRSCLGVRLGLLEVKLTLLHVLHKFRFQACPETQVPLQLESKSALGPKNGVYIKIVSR
Protocol: as §1
3. Thromboxane A2 (TxA2) Synthetase
Indomethacin pretreated human platelet microsomes (Science 1976, 193, 163) are incubated (2 min.: 0° C.) with PGH2 (produced as in 1) and aliquots of the reaction mixture superfused over two rabbit aorta spirals which are separated by a delay coil (2 min.). The latter is required to allow the selective decay of the more unstable thromboxane A2 (Proc. Nat. Acad. Sci., 1975, 72, 2994) thereby enabling the separate measurement of increased isometric tension due to the TxA2 formed and the PGH2 remaining. The test compound is pre-incubated with the enzyme for 5 minutes, and its ability to inhibit the thromboxane synthetase enzyme is measured as its reduction of the TxA2 component of the isometric tension.
as §2

[3] = system: lethal effect of arachidonic acid injection; conditions: intravenous arachidonic acid; literature; cited from earlier work
[4] = system: aggregation of platelets in the rat aorta; conditions: rats in vivo; literature; cited from earlier work
[5] = system: human blood platelet aggregation; conditions: human blood platelets, variety of aggregating agents; literature; cited from earlier work
cyclo-oxygenase enzyme = conditions: background statement; cited from earlier work
[6] = target: T1, Prostacyclin (PGI2) Synthetase; conditions: pre-incubation with pig aorta microsome enzyme; literature; cited from earlier work
Cyclo-oxygenase = target: T3, Cyclo-oxygenase (Ovis aries, UniProt P05979); experiment: Cyclo-oxygenase inhibition in vitro (isometric tension of rabbit aorta strip); format: biochemical; conditions: ram seminal vesicle microsomes; arachidonic acid 100 μM, 1 min, 22°; 5 min pre-incubation; read-out: Molar concentration causing 50% inhibition of Cyclo-oxygenase
T3 construct: Ram seminal vesicle microsomes; from tissue; host or cells: ram seminal vesicle (microsomes)
T3 sequence (P05979 25-600): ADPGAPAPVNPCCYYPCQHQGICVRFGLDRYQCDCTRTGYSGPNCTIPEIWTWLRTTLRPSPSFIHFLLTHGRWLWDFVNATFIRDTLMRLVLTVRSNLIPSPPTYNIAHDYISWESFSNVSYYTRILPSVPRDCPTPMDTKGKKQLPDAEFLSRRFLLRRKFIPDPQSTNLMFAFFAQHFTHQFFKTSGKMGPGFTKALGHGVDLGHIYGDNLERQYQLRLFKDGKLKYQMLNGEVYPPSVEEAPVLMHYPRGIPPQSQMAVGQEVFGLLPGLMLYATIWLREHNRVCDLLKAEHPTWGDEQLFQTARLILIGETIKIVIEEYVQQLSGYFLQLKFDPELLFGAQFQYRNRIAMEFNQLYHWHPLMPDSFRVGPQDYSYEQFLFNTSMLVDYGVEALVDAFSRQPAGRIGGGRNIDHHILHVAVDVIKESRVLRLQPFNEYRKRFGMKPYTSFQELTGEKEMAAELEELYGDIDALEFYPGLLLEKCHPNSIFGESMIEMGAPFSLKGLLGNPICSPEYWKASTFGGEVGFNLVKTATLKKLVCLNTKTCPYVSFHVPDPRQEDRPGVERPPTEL
Protocol: as §1
Ram seminal vesicle microsomes (Biochemistry, 1971, 10, 2372) are incubated with arachidonic acid (100 μM: 1 min.: 22°) to produce PGH2 and aliquots of the reaction mixture injected into a stream of Krebs-bicarbonate at 37° C. (containing a mixture of antagonists (Nature, 1978, 218, 1135) and indomethacin (Brit. J. Pharmacol., 1972, 45, 451)) which is superfusing a spirally-cut rabbit aorta strip (Nature, 1969, 223, 29). The ability of a compound to inhibit the enzyme is measured by comparing the increases in isometric tension produced by PGH2 in the absence of the test compound, and following pre-incubation of the enzyme with the test compound for 5 minutes.
as §2

Row | Structure (SMILES) | IC50 [1] | IC50 [2] | other results
1 | O=C(c1ccccc1)n1cccc1Cn1ccnc1 | 35000 nM | 4.9 nM | 
2 | c1ccc(-n2cccc2Cn2ccnc2)cc1 | 6500 nM | 1.9 nM | 
3 | c1ccc(Cn2cccc2Cn2ccnc2)cc1 |  | 1700 nM | 
4 | c1cc(Cn2ccnc2)n(C2CCCCC2)c1 |  | 620 nM | 
5 | O=C1C(CC[S+]([O-])c2ccccc2)C(=O)N(c2ccccc2)N1c1ccccc1 (centres unmarked) [sulphinpyrazone] |  |  | protection from the lethal effect of arachidonic acid injection [3]: protect the rabbit from the lethal effect of the injection; prevention of platelet aggregation in extra corporeal loop of the abdominal aorta [4]: prevent the aggregation of platelets; inhibitory activity in vitro against aggregating agents [5]: show inhibitory activity in vitro
6 | CCOC(=O)c1ccc(Cn2cccc2Cn2ccnc2)cc1 | 22000 nM | 2.4 nM | 
7 | CC(=O)Oc1ccccc1C(=O)O [aspirin] |  |  | inhibition of the cyclo-oxygenase enzyme (cyclo-oxygenase enzyme): inhibit the cyclo-oxygenase enzyme; protection from the lethal effect of arachidonic acid injection [3]: protect the rabbit from the lethal effect of the injection; inhibitory activity in vitro against aggregating agents [5]: show inhibitory activity in vitro
8 | CCCCCC(/C=C/C=C\C/C=C\C/C=C\CCCC(=O)O)OO (centres unmarked) [15-hydroperoxy-arachidonic acid] |  |  | prevention of the PGI2-induced decrease in tension (PGI2 synthetase inhibition) [6]: prevented completely
9 | O=C(O)CCn1cccc1Cn1ccnc1 [CH2 CH2 CO2 H, 1-(2-Carboxyethyl)-2-(imidazol-1-ylmethyl)pyrrole] |  | 180 nM | 
10 | O=C(O)c1ccc(Cn2cccc2Cn2ccnc2)cc1 | 100000 nM | 3.4 nM | IC50 (Cyclo-oxygenase): > 100000 nM
11 | C=CCn1cccc1Cn1ccnc1 [CH2 CHCH2] |  | 150 nM | 
